Assay results published in patent publication US20260250318A1, “COMPOSITIONS AND METHODS FOR CROSSING THE BLOOD BRAIN BARRIER” (VOYAGER THERAPEUTICS, INC., priority 2022, published 2026).

How the values were obtained:
[1] = tested on: brains, heart, liver, muscle, and DRG of the NHPs; experiment: Maturation of TTM-001 and TTM-002 capsids, NGS enrichment in NHP tissues; assay type: in vivo; settings: relative to AAV9 control
Method in brief: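 Variants carry mutations within and flanking the loop IV peptide insert: positions 450–466 were triplet-randomized, while positions 449–466 received low-frequency point mutations. The combined pool went into two NHPs, and each peptide was scored by NGS enrichment ratio against AAV9.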

brain = experiment: Matured TTM-001 and TTM-002 variants, NGS enrichment in mouse brain; assay type: in vivo, mice; settings: relative to AAV9 control
[2] = NGS fold-enrichment of RNA, NHP brain
[3] = NGS fold-enrichment, DRG of NHPs
[4] = NGS fold-enrichment, NHP liver DNA
[5] = NGS fold-enrichment, NHP liver RNA
[6] = NGS fold-enrichment, NHP muscle
[7] = NGS fold-enrichment, RNA, brain of NHPs
[8] = NGS fold-enrichment, heart of NHPs
[9] = NGS fold-enrichment, liver DNA of NHPs
[10] = NGS fold-enrichment, liver RNA of NHPs
[11] = NGS fold-enrichment, muscle of NHPs
[12] = NGS fold-enrichment, brain of mice
[13] = NGS fold-enrichment, mouse brain
[14] = NGS fold-enrichment of matured AAV capsid variants, NHP brain, RNA

KTVNGSGSPHSKAPNQHT
Fold Enrichment relative to AAV9, Brain (NHP) [1, 2]: 117.207 fold
Fold Enrichment relative to AAV9, DRG (NHP) [1, 3]: 0.000 fold
Fold Enrichment relative to AAV9, DRG (NHP) ([1]; NGS fold-enrichment, NHP DRG): 0.000 fold
Fold Enrichment relative to AAV9, Heart (NHP) ([1]; NGS fold-enrichment, NHP heart): 0.109 fold
Fold Enrichment relative to AAV9, Liver DNA (NHP) [1, 4]: 0.074 fold
Fold Enrichment relative to AAV9, Liver RNA (NHP) [1, 5]: 0.000 fold
Fold Enrichment relative to AAV9, Muscle (NHP) [1, 6]: 0.000 fold
Fold Enrichment relative to AAV9, Brain (NHP) [1, 7]: 117.207 fold
Fold Enrichment relative to AAV9, Heart (NHP) [1, 8]: 0.109 fold
Fold Enrichment relative to AAV9, Liver DNA (NHP) [1, 9]: 0.074 fold
Fold Enrichment relative to AAV9, Liver RNA (NHP) [1, 10]: 0.000 fold
Fold Enrichment relative to AAV9, Muscle (NHP) [1, 11]: 0.000 fold
Fold Enrichment relative to AAV9, Brain (Mouse) (brain; [12]): 51.008 fold
Fold Enrichment relative to AAV9, Brain (Mouse) (brain; [13]): 51.008 fold

KTVNGSGSPHSKAPNQQT
Fold Enrichment relative to AAV9, Brain (NHP) [1, 14]: 53.444 fold
Fold Enrichment relative to AAV9, DRG (NHP) ([1]; NHP DRG): 0.833 fold
Fold Enrichment relative to AAV9, Heart (NHP) ([1]; NHP heart): 2.206 fold
Fold Enrichment relative to AAV9, Liver DNA (NHP) ([1]; NHP liver, DNA): 0.178 fold
Fold Enrichment relative to AAV9, Liver RNA (NHP) ([1]; NHP liver, RNA): 0.156 fold
Fold Enrichment relative to AAV9, Muscle (NHP) ([1]; NHP muscle): 0.006 fold
Fold Enrichment relative to AAV9, Brain (Mouse) (brain; mouse brain): 58.080 fold

KTVNGSGSPHSKAQDKQT
Fold Enrichment relative to AAV9, Brain (NHP) [1, 14]: 51.580 fold
Fold Enrichment relative to AAV9, DRG (NHP) ([1]; NHP DRG): 0.428 fold
Fold Enrichment relative to AAV9, Heart (NHP) ([1]; NHP heart): 0.000 fold
Fold Enrichment relative to AAV9, Liver DNA (NHP) ([1]; NHP liver, DNA): 0.063 fold
Fold Enrichment relative to AAV9, Liver RNA (NHP) ([1]; NHP liver, RNA): 0.041 fold
Fold Enrichment relative to AAV9, Muscle (NHP) ([1]; NHP muscle): 0.069 fold
Fold Enrichment relative to AAV9, Brain (Mouse) (brain; mouse brain): 69.225 fold

KTVNGSGSPHSKAQHLQT
Fold Enrichment relative to AAV9, Brain (NHP) [1, 14]: 55.739 fold
Fold Enrichment relative to AAV9, DRG (NHP) ([1]; NHP DRG): 0.091 fold
Fold Enrichment relative to AAV9, Heart (NHP) ([1]; NHP heart): 0.036 fold
Fold Enrichment relative to AAV9, Liver DNA (NHP) ([1]; NHP liver, DNA): 0.409 fold
Fold Enrichment relative to AAV9, Liver RNA (NHP) ([1]; NHP liver, RNA): 0.062 fold
Fold Enrichment relative to AAV9, Muscle (NHP) ([1]; NHP muscle): 0.000 fold
Fold Enrichment relative to AAV9, Brain (Mouse) (brain; mouse brain): 62.743 fold

KTVNGSGSPHSKAQLQQT
Fold Enrichment relative to AAV9, Brain (NHP) [1, 14]: 58.681 fold
Fold Enrichment relative to AAV9, DRG (NHP) ([1]; NHP DRG): 0.315 fold
Fold Enrichment relative to AAV9, Heart (NHP) ([1]; NHP heart): 0.465 fold
Fold Enrichment relative to AAV9, Liver DNA (NHP) ([1]; NHP liver, DNA): 0.333 fold
Fold Enrichment relative to AAV9, Liver RNA (NHP) ([1]; NHP liver, RNA): 0.529 fold
Fold Enrichment relative to AAV9, Muscle (NHP) ([1]; NHP muscle): 0.045 fold
Fold Enrichment relative to AAV9, Brain (Mouse) (brain; mouse brain): 81.201 fold

KTVNGSGSPHSKAQNHLT
Fold Enrichment relative to AAV9, DRG (NHP) [1, 3]: 0.133 fold
Fold Enrichment relative to AAV9, Brain (NHP) [1, 7]: 59.239 fold
Fold Enrichment relative to AAV9, Heart (NHP) [1, 8]: 0.034 fold
Fold Enrichment relative to AAV9, Liver DNA (NHP) [1, 9]: 0.156 fold
Fold Enrichment relative to AAV9, Liver RNA (NHP) [1, 10]: 0.000 fold
Fold Enrichment relative to AAV9, Muscle (NHP) [1, 11]: 0.000 fold
Fold Enrichment relative to AAV9, Brain (Mouse) (brain; [12]): 70.786 fold

KTVNGSGSPHSKAQNLQA
Fold Enrichment relative to AAV9, DRG (NHP) [1, 3]: 0.000 fold
Fold Enrichment relative to AAV9, Brain (NHP) [1, 7]: 66.379 fold
Fold Enrichment relative to AAV9, Heart (NHP) [1, 8]: 0.000 fold
Fold Enrichment relative to AAV9, Liver DNA (NHP) [1, 9]: 0.132 fold
Fold Enrichment relative to AAV9, Liver RNA (NHP) [1, 10]: 0.000 fold
Fold Enrichment relative to AAV9, Muscle (NHP) [1, 11]: 0.000 fold
Fold Enrichment relative to AAV9, Brain (Mouse) (brain; [12]): 50.934 fold

KTVNGSGSPHSKAQNQLI
Fold Enrichment relative to AAV9, Brain (NHP) [1, 2]: 80.509 fold
Fold Enrichment relative to AAV9, DRG (NHP) [1, 3]: 0.000 fold
Fold Enrichment relative to AAV9, DRG (NHP) ([1]; NGS fold-enrichment, NHP DRG): 0.000 fold
Fold Enrichment relative to AAV9, Heart (NHP) ([1]; NGS fold-enrichment, NHP heart): 0.000 fold
Fold Enrichment relative to AAV9, Liver DNA (NHP) [1, 4]: 0.166 fold
Fold Enrichment relative to AAV9, Liver RNA (NHP) [1, 5]: 0.000 fold
Fold Enrichment relative to AAV9, Muscle (NHP) [1, 6]: 0.000 fold
Fold Enrichment relative to AAV9, Brain (NHP) [1, 7]: 80.509 fold
Fold Enrichment relative to AAV9, Heart (NHP) [1, 8]: 0.000 fold
Fold Enrichment relative to AAV9, Liver DNA (NHP) [1, 9]: 0.166 fold
Fold Enrichment relative to AAV9, Liver RNA (NHP) [1, 10]: 0.000 fold
Fold Enrichment relative to AAV9, Muscle (NHP) [1, 11]: 0.000 fold
Fold Enrichment relative to AAV9, Brain (Mouse) (brain; [12]): 71.156 fold
Fold Enrichment relative to AAV9, Brain (Mouse) (brain; [13]): 71.156 fold

KTVNGSGSPHSKAQNQWT
Fold Enrichment relative to AAV9, Brain (NHP) [1, 14]: 56.823 fold
Fold Enrichment relative to AAV9, DRG (NHP) ([1]; NHP DRG): 0.000 fold
Fold Enrichment relative to AAV9, Heart (NHP) ([1]; NHP heart): 0.000 fold
Fold Enrichment relative to AAV9, Liver DNA (NHP) ([1]; NHP liver, DNA): 0.219 fold
Fold Enrichment relative to AAV9, Liver RNA (NHP) ([1]; NHP liver, RNA): 0.000 fold
Fold Enrichment relative to AAV9, Muscle (NHP) ([1]; NHP muscle): 0.299 fold
Fold Enrichment relative to AAV9, Brain (Mouse) (brain; mouse brain): 69.906 fold

KTVNGSGSPHSKAQSLQT
Fold Enrichment relative to AAV9, Brain (NHP) [1, 14]: 55.497 fold
Fold Enrichment relative to AAV9, DRG (NHP) ([1]; NHP DRG): 0.000 fold
Fold Enrichment relative to AAV9, Heart (NHP) ([1]; NHP heart): 0.060 fold
Fold Enrichment relative to AAV9, Liver DNA (NHP) ([1]; NHP liver, DNA): 0.143 fold
Fold Enrichment relative to AAV9, Liver RNA (NHP) ([1]; NHP liver, RNA): 0.000 fold
Fold Enrichment relative to AAV9, Muscle (NHP) ([1]; NHP muscle): 0.000 fold
Fold Enrichment relative to AAV9, Brain (Mouse) (brain; mouse brain): 69.033 fold

KTVNGSGSPHSKAQYQHT
Fold Enrichment relative to AAV9, DRG (NHP) [1, 3]: 0.000 fold
Fold Enrichment relative to AAV9, Brain (NHP) [1, 7]: 72.847 fold
Fold Enrichment relative to AAV9, Heart (NHP) [1, 8]: 0.000 fold
Fold Enrichment relative to AAV9, Liver DNA (NHP) [1, 9]: 0.130 fold
Fold Enrichment relative to AAV9, Liver RNA (NHP) [1, 10]: 0.000 fold
Fold Enrichment relative to AAV9, Muscle (NHP) [1, 11]: 0.000 fold
Fold Enrichment relative to AAV9, Brain (Mouse) (brain; [12]): 54.158 fold

KTVNGSGSPHSKARDQQT
Fold Enrichment relative to AAV9, Brain (NHP) [1, 2]: 124.789 fold
Fold Enrichment relative to AAV9, DRG (NHP) [1, 3]: 0.123 fold
Fold Enrichment relative to AAV9, DRG (NHP) ([1]; NGS fold-enrichment, NHP DRG): 0.123 fold
Fold Enrichment relative to AAV9, Heart (NHP) ([1]; NGS fold-enrichment, NHP heart): 0.039 fold
Fold Enrichment relative to AAV9, Liver DNA (NHP) [1, 4]: 0.454 fold
Fold Enrichment relative to AAV9, Liver RNA (NHP) [1, 5]: 0.569 fold
Fold Enrichment relative to AAV9, Muscle (NHP) [1, 6]: 0.312 fold
Fold Enrichment relative to AAV9, Brain (NHP) [1, 7]: 124.789 fold
Fold Enrichment relative to AAV9, Heart (NHP) [1, 8]: 0.039 fold
Fold Enrichment relative to AAV9, Liver DNA (NHP) [1, 9]: 0.454 fold
Fold Enrichment relative to AAV9, Liver RNA (NHP) [1, 10]: 0.569 fold
Fold Enrichment relative to AAV9, Muscle (NHP) [1, 11]: 0.312 fold
Fold Enrichment relative to AAV9, Brain (Mouse) (brain; [12]): 132.137 fold
Fold Enrichment relative to AAV9, Brain (Mouse) (brain; [13]): 132.137 fold

KTVNGSGSPHSKSQNQLT
Fold Enrichment relative to AAV9, Brain (NHP) [1, 2]: 101.327 fold
Fold Enrichment relative to AAV9, DRG (NHP) [1, 3]: 0.000 fold
Fold Enrichment relative to AAV9, DRG (NHP) ([1]; NGS fold-enrichment, NHP DRG): 0.000 fold
Fold Enrichment relative to AAV9, Heart (NHP) ([1]; NGS fold-enrichment, NHP heart): 0.035 fold
Fold Enrichment relative to AAV9, Liver DNA (NHP) [1, 4]: 0.025 fold
Fold Enrichment relative to AAV9, Liver RNA (NHP) [1, 5]: 0.000 fold
Fold Enrichment relative to AAV9, Muscle (NHP) [1, 6]: 0.000 fold
Fold Enrichment relative to AAV9, Brain (NHP) [1, 7]: 101.327 fold
Fold Enrichment relative to AAV9, Heart (NHP) [1, 8]: 0.035 fold
Fold Enrichment relative to AAV9, Liver DNA (NHP) [1, 9]: 0.025 fold
Fold Enrichment relative to AAV9, Liver RNA (NHP) [1, 10]: 0.000 fold
Fold Enrichment relative to AAV9, Muscle (NHP) [1, 11]: 0.000 fold
Fold Enrichment relative to AAV9, Brain (Mouse) (brain; [12]): 80.716 fold
Fold Enrichment relative to AAV9, Brain (Mouse) (brain; [13]): 80.716 fold

KTVNGSGSPHSKSQNQQT
Fold Enrichment relative to AAV9, Brain (NHP) [1, 14]: 52.395 fold
Fold Enrichment relative to AAV9, DRG (NHP) ([1]; NHP DRG): 0.033 fold
Fold Enrichment relative to AAV9, Heart (NHP) ([1]; NHP heart): 0.077 fold
Fold Enrichment relative to AAV9, Liver DNA (NHP) ([1]; NHP liver, DNA): 0.175 fold
Fold Enrichment relative to AAV9, Liver RNA (NHP) ([1]; NHP liver, RNA): 0.105 fold
Fold Enrichment relative to AAV9, Muscle (NHP) ([1]; NHP muscle): 0.013 fold
Fold Enrichment relative to AAV9, Brain (Mouse) (brain; mouse brain): 58.000 fold
